The values below are quoted from earlier work in patent US8329663B2, “Compositions and methods for the treatment of chronic infections” (priority 2008, dated 2012).

Where two headings read alike, the source gives them in different places.

For data set [1] the following is noted: in water.
Where [2] appears, read: first (or only) pKa value listed.
Setting [3] is: second pKa value listed (polyprotic).
The mark [4] stands for this setting: third pKa value listed (polyprotic).

Take `Cc1nc2n(c(=O)c1CCN1CCC(c3noc4cc(F)ccc34)CC1)CCCC2O` (stereo not shown) [9-Hydroxy-risperidone]: the “pKa (in H2O)” value in data set [1] (setting [2]) is reported as 2.77; in data set [1] (setting [3]) it was 7.86.
In the case of `C[C@H](N)C(=O)N[C@@H](C)C(=O)N[C@H]1[C@@H]2CN(c3nc4c(cc3F)c(=O)c(C(=O)O)cn4-c3ccc(F)cc3F)C[C@@H]21` [Alatrofloxacin], the “pKa (in H2O)” value in data set [1] (setting [2]) was 0.64; in data set [1] (setting [3]), 8.12.
`CC1(C)S[C@@H]2[C@H](NC(=O)[C@H](N)c3ccc(O)cc3)C(=O)N2[C@H]1C(=O)O` [Amoxicillin]: the entries for the “pKa (in H2O)” value in data set [1] (setting [2]) and in data set [1] (setting [3]) were 2.8 and 7.2, respectively.
For `CC(C)CN(C[C@@H](O)[C@H](Cc1ccccc1)NC(=O)O[C@H]1CCOC1)S(=O)(=O)c1ccc(N)cc1` [Amprenavir], the “pKa (in H2O)” value in data set [1] (setting [2]) was 1.76; in data set [1] (setting [3]), 11.54.
Consider `CC(=O)OCC1=C(C(=O)O)N2C(=O)[C@@H](NC(=O)CSc3ccncc3)[C@H]2SC1` [Cephapirin], for which the “pKa (in H2O)” value in data set [1] (setting [2]) is reported as 2.15; in data set [1] (setting [3]), 5.44.
Regarding `CN(C)CCc1c[nH]c2ccccc12` [Dimethyltryptamine], the “pKa (in H2O)” value in data set [1] (setting [2]) is recorded as 2.
Regarding `O=C(O)c1cccc(C(=O)O)n1` [Dipicolinic Acid], in data set [1] (setting [3]), the “pKa (in H2O)” value was 4.97.
Take `C[C@H]1c2cccc(O)c2C(=O)C2=C(O)[C@]3(O)C(=O)C(C(N)=O)=C(O)[C@@H](N(C)C)[C@@H]3[C@@H](O)[C@@H]21` [Doxycycline]: the “pKa (in H2O)” value is reported as 3.5 in data set [1] (setting [2]), 7.7 in data set [1] (setting [3]) and 9.5 in data set [1] (setting [4]).
In the case of `O=C(O)c1ccccc1Nc1cccc(C(F)(F)F)c1` [Flufenamic acid], in data set [1] (setting [2]), the “pKa (in H2O)” value is on record as 3.9.
Take `CCOC(=O)c1ncn2c1CN(C)C(=O)c1cc(F)ccc1-2` [Flumazenil]: the “pKa (in H2O)” value in data set [1] (setting [2]) was 1.7.
As to `OCCOCCN1CCN(C(c2ccccc2)c2ccc(Cl)cc2)CC1` (stereo not shown) [Hydroxyzine], the “pKa (in H2O)” value in data set [1] (setting [2]) is listed as 1.8.
`NNC(=O)c1ccncc1` [Isoniazid]: the “pKa (in H2O)” value in data set [1] (setting [2]) is 1.82.
In the case of `C[N+](C)(C)C[C@H](O)CC(=O)[O-]` [L-carnitine], the “pKa (in H2O)” value in data set [1] (setting [2]) was 3.8.
With `Cc1ccccc1-n1c(C)nc2ccccc2c1=O` [Methaqualone], in data set [1] (setting [2]), the “pKa (in H2O)” value was 2.5.
`NCC1(CC(=O)O)CCCCC1` [Neurontin]: the entries for the “pKa (in H2O)” value in data set [1] (setting [2]) and in data set [1] (setting [3]) were 3.68 and 10.70, respectively.
In the case of `COc1ccc2[nH]c([S+]([O-])Cc3ncc(C)c(OC)c3C)nc2c1` (stereo not shown) [Omeprazole], in data set [1] (setting [3]), the “pKa (in H2O)” value is on record as 8.8.
Regarding `CCCN(CCC)S(=O)(=O)c1ccc(C(=O)O)cc1` [Probenicid], the “pKa (in H2O)” value in data set [1] (setting [2]) is listed as 3.4.
With `CN(C)CCc1c[nH]c2cccc(OP(=O)(O)O)c12` [Psilocybin], the “pKa (in H2O)” value in data set [1] (setting [2]) is listed as 0.2.
Turning to `CO[C@H]1/C=C/O[C@@]2(C)Oc3c(C)c(O)c4c(O)c(c(/C=N/N5CCN(C)CC5)c(O)c4c3C2=O)NC(=O)/C(C)=C\C=C\[C@H](C)[C@H](O)[C@@H](C)[C@@H](O)[C@@H](C)[C@H](OC(C)=O)[C@@H]1C` [Rifampin], the “pKa (in H2O)” value in data set [1] (setting [2]) is 1.7; in data set [1] (setting [3]) it was 7.9.
For the molecule `O=P(O)(O)C(O)(Cc1cccnc1)P(=O)(O)O` [Risedronic acid], the “pKa (in H2O)” value in data set [1] (setting [2]) is reported as 0.32; in data set [1] (setting [3]) it was 5.09.
For the molecule `CCS(=O)(=O)CCn1c([N+](=O)[O-])cnc1C` [Tinidazole], in data set [1] (setting [2]), the “pKa (in H2O)” value is given as 2.34.
As for `CC(C)[C@H](N)C(=O)OCCOCn1cnc2c(=O)[nH]c(N)nc21` [Valacyclovir], the “pKa (in H2O)” value in data set [1] (setting [2]) is reported as 1.90; in data set [1] (setting [3]), 7.47; in data set [1] (setting [4]) it was 9.43.
Take `CC[C@H]1OC(=O)[C@H](C)[C@@H](O[C@H]2C[C@@](C)(OC)[C@@H](O)[C@H](C)O2)[C@H](C)[C@@H](O[C@@H]2O[C@H](C)C[C@H](N(C)C)[C@H]2O)[C@](C)(OC)C[C@@H](C)C(=O)[C@H](C)[C@@H](O)[C@]1(C)O` [clarithromycin]: the “in vitro susceptibility of C. pneumoniae” value in the data set on C. pneumoniae is listed as “susceptible in vitro”.
With `CC[C@H]1OC(=O)[C@H](C)[C@@H](O[C@H]2C[C@@](C)(OC)[C@@H](O)[C@H](C)O2)[C@H](C)[C@@H](O[C@@H]2O[C@H](C)C[C@H](N(C)C)[C@H]2O)[C@](C)(O)C[C@@H](C)C(=O)[C@H](C)[C@@H](O)[C@]1(C)O` [erythromycin], in the data set on C. pneumoniae, the “in vitro susceptibility of C. pneumoniae” value was “susceptible in vitro”.
Take `C[C@@H]1CN(c2c(F)c(N)c3c(=O)c(C(=O)O)cn(C4CC4)c3c2F)C[C@H](C)N1` [sparfloxacin]: the “in vitro susceptibility of C. pneumoniae” value in the data set with C. pneumoniae was “susceptible in vitro”.
